Measured values: US9504684B2, “Syk inhibitors” (Gilead Sciences, Inc., priority 2014, dated 2016)
Where a name gives a salt, the structure may show the parent alone.

What was measured:
human hepatocytes = test: Human Hepatocyte Stability Assay; type: in vitro ADME
Method: The human […] stability of the compounds as predicted hepatocyte clearance in L/hr/kg was assessed. Compounds to be tested were diluted to 200 μM (4 μl of 10 mM DMSO stock into 196 μl ACN:H2O (50:50). Propranolol was used as a positive control, and buffer only without hepatocytes as 0% control. These were further diluted 4 μl with 891 μl KHB buffer (InVitroGRO catalog number Z99074) to provide 2× dosing solution. To each well of 24 well plate, 250 μl of the 2× dosing solution was added to each well with 250 μl of hepatocytes cells (1×10^6 viable cells/ml per well) or KHB for control samples to achieve a final compound concentration of 1 μM during incubation. The final solvent concentration was 0.01% DMSO and 0.25% ACN. The culture plate was placed on a rocker and incubated at 37° C., 5% CO2. Samples were collected at time 0, 1, 3, and 6 hours. The loss of parent compound was determined using LC-MS methods against a standard curve.

[1] = cited from earlier work
[2] = in vivo; cited from earlier work
[3] = comparison table of Example 12, head prints "(units)", L/hr/kg per Example 11
[4] = predicted hepatocyte clearance, human hepatocytes, 1 μM compound

Structure (SMILES)	Hheps CL (human hepatocytes; [3])	Hheps CL (human hepatocytes; [4])	also measured
COc1ccc(Nc2nc(-c3cccc(N)c3)cn3ccnc23)cc1OC [6-(3-aminophenyl)-N-(3,4-dimethoxyphenyl)imidazo[1,2-a]pyrazin-8-amine, reference compound]	4 mL/min/kg		
CC[C@]1(O)C[C@H]2CN(CCc3c([nH]c4ccccc34)[C@@](C(=O)OC)(c3cc4c(cc3OC)N(C=O)[C@H]3[C@@](O)(C(=O)OC)[C@H](OC(C)=O)[C@]5(CC)C=CCN6CC[C@]43[C@@H]65)C2)C1 [Vincristine Sulfate, vincristine sulfate]			solubility in 95% ethanol ([1]; 95% ethanol): only slightly soluble; solubility in methanol ([1]; methanol): soluble in methanol; solubility in water ([1]; water): freely soluble
Cc1ncc(-c2cn3ccnc3c(Nc3ccc(N4CCOCC4)cc3)n2)cc1N [6-(5-amino-6-methylpyridin-3-yl)-N-(4-morpholinophenyl)imidazo[1,2-a]pyrazin-8-amine, reference compound]	13.3 mL/min/kg		
Cc1ncc(-c2cn3ccnc3c(Nc3ccc(N4CCN(C5COC5)CC4)cc3)n2)nc1N [Ex.-1, 6-(6-amino-5-methylpyrazin-2-yl)-N-(4-(4-(oxetan-3-yl)piperazin-1-yl)phenyl)imidazo[1,2-a]pyrazin-8-amine]	2 mL/min/kg	2 mL/min/kg	
Nc1cncc(-c2cn3ccnc3c(Nc3ccc(N4CCOCC4)cc3)n2)c1 [6-(5-aminopyridin-3-yl)-N-(4-morpholinophenyl)imidazo[1,2-a]pyrazin-8-amine, reference compound]	11.3 mL/min/kg		
Cc1c(-c2cncc(N)n2)nc(Nc2ccc(N3CCN(C4COC4)CC3)cc2)c2nccn12 [Ex.-4, 6-(6-aminopyrazin-2-yl)-5-methyl-N-(4-(4-(oxetan-3-yl)piperazin-1-yl)phenyl)imidazo[1,2-a]pyrazin-8-amine]	1.3 mL/min/kg	1.3 mL/min/kg	
Cc1ncc(-c2cn3ccnc3c(Nc3ccc(N4CCN(C5COC5)CC4)c(OCCO)c3)n2)nc1N [Ex.-7, 2-(5-((6-(6-amino-5-methylpyrazin-2-yl)imidazo[1,2-a]pyrazin-8-yl)amino)-2-(4-(oxetan-3-yl)piperazin-1-yl)phenoxy)ethanol]	0.83 mL/min/kg	0.83 mL/min/kg	
Nc1cncc(-c2cn3ccnc3c(Nc3ccc(N4CCN(C5COC5)CC4)c(OCCO)c3)n2)n1 [Ex.-5, 2-(5-((6-(6-aminopyrazin-2-yl)imidazo[1,2-a]pyrazin-8-yl)amino)-2-(4-(oxetan-3-yl)piperazin-1-yl)phenoxy)ethanol]	1.2 mL/min/kg	1.2 mL/min/kg	
COc1ccc(Nc2nc(-c3ccc(N)nc3)cn3ccnc23)cc1OC [6-(6-aminopyridin-3-yl)-N-(3,4-dimethoxyphenyl)imidazo[1,2-a]pyrazin-8-amine, reference compound]	15 mL/min/kg		
Nc1cncc(-c2cn3ccnc3c(Nc3ccc(N4CCO[C@@H](CO)C4)cc3)n2)n1 [Ex.-3, (R)-(4-(4-((6-(6-aminopyrazin-2-yl)imidazo[1,2-a]pyrazin-8-yl)amino)phenyl)morpholin-2-yl)methanol]	1.5 mL/min/kg	1.5 mL/min/kg	
CC[C@]1(O)C[C@@H]2CN(CCc3c([nH]c4ccccc34)[C@@](C(=O)OC)(c3cc4c(cc3OC)N(C)[C@H]3[C@@](O)(C(N)=O)[C@H](O)[C@]5(CC)C=CCN6CC[C@]43[C@@H]65)C2)C1 [Vindesine, vindesine]			serum half-life [2]: 24 h
Nc1cncc(-c2cn3ccnc3c(Nc3ccc(N4CCN(C5COC5)CC4)cc3)n2)n1 [Ex.-2, 6-(6-aminopyrazin-2-yl)-N-(4-(4-(oxetan-3-yl)piperazin-1-yl)phenyl)imidazo[1,2-a]pyrazin-8-amine]	0.917 mL/min/kg	0.917 mL/min/kg	
Nc1cncc(-c2cn3ccnc3c(Nc3ccc(N4CCN(CC(CO)CO)CC4)cc3)n2)n1 [Ex.-6, 2-((4-(4-((6-(6-aminopyrazin-2-yl)imidazo[1,2-a]pyrazin-8-yl)amino)phenyl)piperazin-1-yl)methyl)propane-1,3-diol]	1.3 mL/min/kg	1.3 mL/min/kg	
